# Experimental data taken from patent US20150258101A1 (Proximagen Limited, priority 2014, published 2015).
# How the values were obtained:
# [1] = molecular target: T1, human ether a go-go related gene (hERG) K+ channel (Homo sapiens, UniProt Q12809); assay: hERG assay, IonWorks patch clamp electrophysiology; type: cell-based; conditions: Chinese Hamster Lung cell line stably expressing hERG; max assay concentration 11 uM
# T1 construct: a Chinese Hamster Lung cell line stably expressing the full length hERG channel; expressed in transfected cells; host or cells: Chinese Hamster Lung cell line
# Procedure: Compounds of the invention were tested for inhibition of the human ether a go-go related gene (hERG) K^+ channel using IonWorks patch clamp electrophysiology. 8 Point concentration-response curves were generated on two occasions using 3-fold serial dilutions from the maximum assay concentration (11 uM). Electrophysiological recordings were made from a Chinese Hamster Lung cell line stably expressing the full length hERG channel. Single cell ion currents were measured in the perforated patch clamp configuration (100 ug/mL amphoterocin) at room temperature using an IonWorks Quattro instrument. The internal solution contained 140 mM KCl, 1 mM MgCl2, 1 mM EGTA and 20 mM HEPES and was buffered to pH 7.3. The external solution contained 138 mM NaCl, 2.7 mM KCl, 0.9 mM CaCl2, 0.5 mM MgCl2, 8 mM Na2HPO4 and 1.5 mM KH2PO4, and was buffered to pH 7.3. […] This sequence was repeated 5 times at a frequency of 0.25 Hz. Currents were measured from the tail step at the 5th pulse, and referenced to the holding current. Compounds were incubated for 6-7 min prior to a second measurement of the hERG signal using an identical pulse train. […] A control compound (quinidine) was used (see Table 20 below).
# [2] = molecular target: T2, purified recombinantly expressed human SSAO (Homo sapiens, UniProt Q16853); assay: SSAO enzyme inhibition assay (benzylamine substrate; hydrogen peroxide/HRP-coupled or 14C aldehyde detection); type: biochemical; conditions: SSAO inhibitory activity, RT
# T2 construct: made in house
# T2 sequence (Q16853 1-763): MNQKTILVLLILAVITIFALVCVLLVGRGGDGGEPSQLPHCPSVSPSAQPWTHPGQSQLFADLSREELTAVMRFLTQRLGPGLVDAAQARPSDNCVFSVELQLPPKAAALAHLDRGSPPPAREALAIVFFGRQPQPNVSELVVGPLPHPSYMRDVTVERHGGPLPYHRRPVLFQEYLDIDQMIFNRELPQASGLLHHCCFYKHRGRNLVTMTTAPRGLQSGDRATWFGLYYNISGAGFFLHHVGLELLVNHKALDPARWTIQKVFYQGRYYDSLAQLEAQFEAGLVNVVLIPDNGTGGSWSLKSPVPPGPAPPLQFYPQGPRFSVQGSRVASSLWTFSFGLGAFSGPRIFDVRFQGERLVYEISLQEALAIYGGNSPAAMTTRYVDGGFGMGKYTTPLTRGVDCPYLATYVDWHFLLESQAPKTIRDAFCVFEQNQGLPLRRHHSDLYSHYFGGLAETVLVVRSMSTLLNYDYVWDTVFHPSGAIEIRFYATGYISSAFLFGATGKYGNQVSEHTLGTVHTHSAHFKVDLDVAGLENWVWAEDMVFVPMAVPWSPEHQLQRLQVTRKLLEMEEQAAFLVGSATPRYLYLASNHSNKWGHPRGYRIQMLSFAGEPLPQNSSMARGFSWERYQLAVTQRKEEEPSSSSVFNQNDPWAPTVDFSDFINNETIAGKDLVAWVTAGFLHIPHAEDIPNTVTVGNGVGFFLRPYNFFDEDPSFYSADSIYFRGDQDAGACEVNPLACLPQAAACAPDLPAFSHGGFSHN
# Outline: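 IC50 values came from a four-parameter logistic fit of % signal decrease versus DMSO control, with no-enzyme background subtracted. Two read-outs were used with human recombinant SSAO after ~15 min compound pre-incubation at RT. In the H2O2/HRP-Amplex read-out, enzyme was 1 ug/ml and benzylamine 100 uM (pH 7.4 phosphate), with resorufin fluorescence followed 1-2 h. In the 14C-benzaldehyde read-out (PBS), enzyme was 10 ug/ml and benzylamine 40 uM, run 1 h then acid-stopped.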
# T1 sequence (Q12809 whole entry): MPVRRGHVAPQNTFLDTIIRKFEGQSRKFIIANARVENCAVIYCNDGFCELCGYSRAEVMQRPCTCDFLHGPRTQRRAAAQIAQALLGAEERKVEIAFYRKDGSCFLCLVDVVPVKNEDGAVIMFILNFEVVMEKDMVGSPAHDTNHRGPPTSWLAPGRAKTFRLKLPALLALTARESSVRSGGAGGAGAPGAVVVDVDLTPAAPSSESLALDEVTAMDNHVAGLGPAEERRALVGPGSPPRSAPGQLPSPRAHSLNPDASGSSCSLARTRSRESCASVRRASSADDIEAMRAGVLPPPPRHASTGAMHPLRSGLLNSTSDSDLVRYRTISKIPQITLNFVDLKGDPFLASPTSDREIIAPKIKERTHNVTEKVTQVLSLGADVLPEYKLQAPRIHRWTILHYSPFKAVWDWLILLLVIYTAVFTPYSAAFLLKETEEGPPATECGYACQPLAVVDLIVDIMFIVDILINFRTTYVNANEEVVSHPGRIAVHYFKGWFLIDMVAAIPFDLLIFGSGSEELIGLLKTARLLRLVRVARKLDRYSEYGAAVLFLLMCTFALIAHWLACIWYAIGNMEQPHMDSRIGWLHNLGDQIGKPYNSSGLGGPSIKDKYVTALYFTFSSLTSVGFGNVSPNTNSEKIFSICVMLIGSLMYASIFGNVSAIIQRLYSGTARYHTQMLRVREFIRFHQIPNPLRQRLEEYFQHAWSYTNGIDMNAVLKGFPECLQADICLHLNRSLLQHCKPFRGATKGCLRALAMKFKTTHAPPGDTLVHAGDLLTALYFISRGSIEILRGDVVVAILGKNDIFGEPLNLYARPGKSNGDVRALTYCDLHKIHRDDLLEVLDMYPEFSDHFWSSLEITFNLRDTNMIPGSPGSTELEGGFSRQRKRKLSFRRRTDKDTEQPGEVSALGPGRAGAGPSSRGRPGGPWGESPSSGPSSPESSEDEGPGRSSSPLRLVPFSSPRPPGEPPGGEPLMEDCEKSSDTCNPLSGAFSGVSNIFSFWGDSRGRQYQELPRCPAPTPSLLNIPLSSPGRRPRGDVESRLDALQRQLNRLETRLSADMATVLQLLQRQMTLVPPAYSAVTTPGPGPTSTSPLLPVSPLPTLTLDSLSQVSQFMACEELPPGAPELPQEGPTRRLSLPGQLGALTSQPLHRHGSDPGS
IC50 [2],SMILES,IC50 [1]
< 50 nM,"Clc1ccc(-n2c(-c3ccc(N4CCOCC4)nc3)nc3ccncc32)nc1 [Example 81, 4-{5-[3-(5-Chloropyridin-2-yl)-3H-imidazo[4,5-c]pyridin-2-yl]pyridin-2-yl}morpholine]",> 10000 nM
< 50 nM,"CC(=O)NC1CCN(c2ccc(-c3nc4ccncc4n3-c3ccc(Cl)cc3)cn2)CC1 [Example 85, N-(1-{5-[3-(4-Chlorophenyl)-3H-imidazo[4,5-c]pyridin-2-yl]pyridin-2-yl}piperidin-4-yl)acetamide]",> 10000 nM
< 50 nM,"Fc1ccc(-n2c(-c3cnc(N4CCCC4)nc3)nc3ccncc32)cc1 [Example 69, 5-[3-(4-Fluorophenyl)-3H-imidazo[4,5-c]pyridin-2-yl]-2-(pyrrolidin-1-yl)pyrimidine]",> 10000 nM
,"c1ccc(-n2c(-c3cnc(N4CCOCC4)nc3)cc3ccncc32)cc1 [Example 131, 4-(5-{1-Phenyl-1H-pyrrolo[2,3-c]pyridin-2-yl}pyrimidin-2-yl)morpholine]",1000 to 10000 nM
50 to 200 nM,"Fc1ccc(-n2c(-c3cnc(N4CCOCC4)nc3)nc3ccncc32)nc1 [Example 76, 4-{5-[3-(5-Fluoropyridin-2-yl)-3H-imidazo[4,5-c]pyridin-2-yl]pyrimidin-2-yl}morpholine]",
50 to 200 nM,"COc1nc(N2CCOCC2)ccc1-c1nc2ccncc2n1-c1ccc(F)cc1 [Example 28, 4-{5-[3-(4-Fluorophenyl)-3H-imidazo[4,5-c]pyridin-2-yl]-6-methoxypyridin-2-yl} morpholine]",
200 to 1200 nM,"O=C(c1ccc(-c2nc3ccncc3n2-c2ccc(Cl)cc2)cn1)N1CCOCC1 [Example 6, 4-({5-[3-(4-Chlorophenyl)-3H-imidazo[4,5-c]pyridin-2-yl]pyridin-2-yl}carbonyl) morpholine]",
200 to 1200 nM,"Cc1ccc(-n2c(-c3cnc(N4CCOCC4)nc3)nc3ccncc32)cn1 [Example 58, 4-{5-[3-(6-Methylpyridin-3-yl)-3H-imidazo[4,5-c]pyridin-2-yl]pyrimidin-2-yl}morpholine]",
< 50 nM,"Cc1ccc(-n2c(-c3cnc(N4CCOCC4)nc3)nc3ccncc32)nc1 [Example 79, 4-{5-[3-(5-Methylpyridin-2-yl)-3H-imidazo[4,5-c]pyridin-2-yl]pyrimidin-2-yl}morpholine]",
< 50 nM,"Clc1ccc(-n2c(-c3ccc(Cn4ccnc4)cc3)nc3ccncc32)cc1 [Example 48, 1-({4-[3-(4-Chlorophenyl)-3H-imidazo[4,5-c]pyridin-2-yl]phenyl}methyl)-1H-imidazole]",
50 to 200 nM,"Fc1ccccc1-n1c(-c2cnc(N3CCOCC3)nc2)nc2ccncc21 [Example 60, 4-{5-[3-(2-Fluorophenyl)-3H-imidazo[4,5-c]pyridin-2-yl]pyrimidin-2-yl}morpholine]",
50 to 200 nM,"Cc1nc(N2CCOCC2)ncc1-c1nc2ccncc2n1-c1ccc(F)cc1 [Example 26, 4-{5-[3-(4-Fluorophenyl)-3H-imidazo[4,5-c]pyridin-2-yl]-4-methylpyrimidin-2-yl} morpholine]",
200 to 1200 nM,"Fc1cc(-n2c(-c3cnc(N4CCOCC4)nc3)nc3ccncc32)ccc1Cl [Example 74, 4-{5-[3-(4-Chloro-3-fluorophenyl)-3H-imidazo[4,5-c]pyridin-2-yl]pyrimidin-2-yl}morpholine]",
< 50 nM,"Fc1ccc(-n2c(-c3cnc(N4CCCOCC4)nc3)nc3ccncc32)cc1 [Example 25, 4-{5-[3-(4-Fluorophenyl)-3H-imidazo[4,5-c]pyridin-2-yl]pyrimidin-2-yl}-1,4-oxazepane]",
200 to 1200 nM,"CN(C)c1cc(-c2nc3ccncc3n2-c2ccc(F)cc2)ccn1 [Example 109, 4-[3-(4-Fluorophenyl)-3H-imidazo[4,5-c]pyridin-2-yl]-N,N-dimethylpyridin-2-amine]",
< 50 nM,"Clc1ccc(-n2c(-c3ccc(CN4CCOCC4)cc3)nc3ccncc32)cc1 [Example 49, 4-({4-[3-(4-Chlorophenyl)-3H-imidazo[4,5-c]pyridin-2-yl]phenyl}methyl)morpholine]",
< 50 nM,"Cc1ccc(-n2c(-c3cnc(N4CCOCC4)cc3C)nc3ccncc32)cn1 [Example 107, 4-{4-Methyl-5-[3-(6-methylpyridin-3-yl)-3H-imidazo[4,5-c]pyridin-2-yl]pyridin-2-yl}morpholine]",
< 50 nM,"O=c1cc(N2CCOCC2)[nH]cc1-c1nc2ccncc2n1-c1ccc(F)cc1 [Example 99, 5-[3-(4-Fluorophenyl)-3H-imidazo[4,5-c]pyridin-2-yl]-2-(morpholin-4-yl)-1,4-dihydropyridin-4-one]",
200 to 1200 nM,"CN(C)c1ncc(-c2nc3ccncc3n2-c2ccc(Cl)cc2)cn1 [Example 72, 5-[3-(4-Chlorophenyl)-3H-imidazo[4,5-c]pyridin-2-yl]-N,N-dimethylpyrimidin-2-amine]",
50 to 200 nM,"Cc1ccc(-n2c(-c3ccc(N4C[C@@H](C)O[C@@H](C)C4)nc3)nc3ccncc32)cn1 [Example 103, (2R,6S)-2,6-Dimethyl-4-{5-[3-(6-methylpyridin-3-yl)-3H-imidazo[4,5-c]pyridin-2-yl]pyridin-2-yl}morpholine; tris(trifluoroacetic acid)]",
50 to 200 nM,"Clc1ccc(-n2c(-c3cnc(N4CCOCC4)cn3)nc3ccncc32)cc1 [Example 5, 4-{5-[3-(4-Chlorophenyl)-3H-imidazo[4,5-c]pyridin-2-yl]pyrazin-2-yl}morpholine]",
50 to 200 nM,"Cc1ccc(-n2c(-c3cnc(NC4CCOCC4)nc3)nc3ccncc32)cc1 [Example 119, 5-[3-(4-Methylphenyl)-3H-imidazo[4,5-c]pyridin-2-yl]-N-(oxan-4-yl)pyrimidin-2-amine; bis(trifluoroacetic acid)]",
50 to 200 nM,"O=c1cc(-c2cc3ccncc3n2-c2ccc(Cl)cc2)cn[nH]1 [Example 146, 5-[1-(4-Chlorophenyl)-1H-pyrrolo[2,3-c]pyridin-2-yl]-2,3-dihydropyridazin-3-one]",
50 to 200 nM,"CC(C)OCCNc1ncc(-c2nc3ccncc3n2-c2ccc(F)cc2)cn1 [Example 38, 5-[3-(4-Fluorophenyl)-3H-imidazo[4,5-c]pyridin-2-yl]-N-[2-(propan-2-yloxy)ethyl] pyrimidin-2-amine]",
50 to 200 nM,"Fc1ccc(-n2c(-c3cnc(NC4CC4)nc3)nc3ccncc32)cc1 [Example 10, N-Cyclopropyl-5-[3-(4-fluorophenyl)-3H-imidazo [4,5-c]pyridin-2-yl]pyrimidin-2-amine]",
< 50 nM,"Cn1ccc(-c2cc3ccncc3n2-c2ccc(Cl)cc2)cc1=O [Example 143, 4-[1-(4-Chlorophenyl)-1H-pyrrolo[2,3-c]pyridin-2-yl]-1-methyl-1,2-dihydropyridin-2-one]",
< 50 nM,"O=c1cc(-c2nc3ccncc3n2-c2ccc(F)cc2)ccn1C1CC1 [Example 115, 1-Cyclopropyl-4-[3-(4-fluorophenyl)-3H-imidazo[4,5-c]pyridin-2-yl]-1,2-dihydropyridin-2-one]",
< 50 nM,"Fc1cc(Cl)ccc1-n1c(-c2cnc(N3CCCC3)nc2)nc2ccncc21 [Example 83, 5-[3-(4-Chloro-2-fluorophenyl)-3H-imidazo[4,5-c]pyridin-2-yl]-2-(pyrrolidin-1-yl)pyrimidine]",
200 to 1200 nM,"Nc1ccc(-c2nc3ccncc3n2-c2ccc(Cl)cc2F)cn1 [Example 105, 5-[3-(4-Chloro-2-fluorophenyl)-3H-imidazo[4,5-c]pyridin-2-yl]pyridin-2-amine]",
200 to 1200 nM,"O=C(NC1CC1)c1ccc(-c2nc3ccncc3n2-c2ccc(Cl)cc2)cn1 [Example 14, 5-[3-(4-Chlorophenyl)-3H-imidazo[4,5-c]pyridin-2-yl]-N-cyclopropylpyridine-2-carboxamide]",
